Measurements reported in patent US20240025841A1, “METHOD FOR OBTAINING CRYSTALLINE DIETHYLAMINO HYDROXYBENZOYL HEXYL BENZOATE” (BASF SE, priority 2020, published 2024).

Test: Equilibrium solubility of (I) in 1-hexanol at different temperatures
Format: physicochemical
Conditions: equilibrium solubility in 1-hexanol
Procedure: The equilibrium solubility of (I) in 1-hexanol at different temperatures was determined using a double jacketed 750 mL crystallizer. A mixture of (I) and 1-hexanol in the crystallizer was heated to a target temperature and the equilibrium condition was allowed to establish at that temperature. Samples from the solid free mother liquor were drawn using a filter frit. The samples were analysed for (I) content.
The results are shown in […].1 and are plotted in FIG. 1.

- (I) concentration (0 °C): 3.8%
- (I) concentration (4 °C): 4.3%
- (I) concentration (7 °C): 5.4%
- (I) concentration (8 °C): 5.3%
- (I) concentration (12 °C): 6.2%
- (I) concentration (13.7 °C): 8.6%
- (I) concentration (16 °C): 7.6%
- (I) concentration (20 °C): 8.8%
- (I) concentration (25 °C): 12.3%
- (I) concentration (28.3 °C): 17.6%
- (I) concentration (30 °C): 19.0%
- (I) concentration (35 °C): 40.0%
- (I) concentration (−0.9 °C): 3.4%
SMILES: CCCCCCOC(=O)c1ccccc1C(=O)c1ccc(N(CC)CC)cc1O [(I), 2-(4′-Diethylamino-2′-hydroxybenzoyl)benzoic acid hexyl ester]
